Data on 5 molecules can be found in patent US20080221253A1, “Lipophilic Properties of 2-Acrylamido-2-Methylpropanesulfonic Acid” (THE LUBRIZOL CORPORATION, priority 2004, published 2008).

Series [1] in a line: Solubility of monomers, mixing 10% of the monomer with a variety of solvents. As to conditions: 10% by weight in solvent. It counts as physicochemical.
The conditions of series [2]: octanol/water partition, P=Coctanol/Cwater; cited from earlier work.

Regarding `C=CC(=O)NC(C)(C)CS(=O)(=O)O.CCCCCCCCCCCCN(C)C` [Example 8, 2-acrylamido-2-methylpropanesulfonic acid/N,N-dimethyl-n-dodecylamine salt], in series [1], the “Solubility in Butyl Acetate” value was “clear”, the “Solubility in Ethanol” value is reported as “clear”, the “Solubility in Ethyl Acetate” value is listed as “clear” and the “Solubility in Isopropanol” value is listed as “clear”. In addition, in series [1], the “Solubility in Styrene” value is “clear”, the “Solubility in Toluene” value was “clear” and the “Solubility in Water” value is “clear”.
In the case of `CCc1ccccc1` [ethylbenzene], in series [2], the “log P” value is given as “about 3.1”.
`C=CC(=O)O` [acrylic acid]: the “log P” value in series [2] is recorded as “about 0.4”.
Consider `C=CC(=O)NC(C)(C)CS(=O)(=O)O.CCCCC(CC)CN` [Example 9, 2-acrylamido-2-methylpropanesulfonic acid/2-ethylhexylamine salt], for which, in series [1], the “Solubility in Butyl Acetate” value was “trace oil”, the “Solubility in Ethanol” value is recorded as “clear”, the “Solubility in Ethyl Acetate” value was “clear” and the “Solubility in Isopropanol” value was “clear”. Besides, the “Solubility in Water” value in series [1] is on record as “clear”.
`C=CC(=O)NC(C)(C)CS(=O)(=O)O` [Example 7, 2-acrylamido-2-methylpropanesulfonic acid]: in series [1], the “Solubility in Butyl Acetate” value was “insoluble”, the “Solubility in Ethanol” value is reported as “insoluble”, the “Solubility in Ethyl Acetate” value is listed as “insoluble” and the “Solubility in Isopropanol” value was “not fully soluble”. In addition, in series [1], the “Solubility in Styrene” value is given as “insoluble”, the “Solubility in Toluene” value is “insoluble” and the “Solubility in Water” value is “clear”.
